Measurements: PubChem BioAssay AID330 (DTP/NCI, 2004)
“And” between values parts separate entries of the source, which are not always exact repeats. Identical values can stand only once. Inconclusive results and toxic doses are left out.

Tested on: P388 leukemia ip, CD2F1 mice, survival T/C
Test: NCI In Vivo Anticancer Drug Screen. Data for tumor model P388 Leukemia (intraperitoneal) in CD2F1 (CDF1) mice
Settings: endpoint: median survival time, higher = longer survival
Method in brief: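 Mice carrying the transplanted tumor received test compound or vehicle. Survival was recorded in each group, and the value is the treated-group measurement divided by that of the vehicle-treated control group.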

[1] = dose: 1.56 mg/kg/injection, schedule: Q01DX009 (ip), vehicle: saline
[2] = dose: 12.5 mg/kg/injection, schedule: Q01DX009 (ip), vehicle: saline with Tween-80
[3] = dose: 25.0 mg/kg/injection, schedule: Q01DX009 (ip), vehicle: saline with Tween-80
[4] = dose: 50.0 mg/kg/injection, schedule: Q01DX009 (ip), vehicle: saline with Tween-80
[5] = dose: 50.0 mg/kg/injection, schedule: Q01DX009 (ip), vehicle: Klucel (hydroxypropylcellulose) (HPC)
[6] = dose: 100.0 mg/kg/injection, schedule: Q01DX009 (ip), vehicle: Klucel (hydroxypropylcellulose) (HPC)
[7] = dose: 200.0 mg/kg/injection, schedule: Q01DX009 (ip), vehicle: Klucel (hydroxypropylcellulose) (HPC)
[8] = dose: 50.0 mg/kg/injection, schedule: Q01DX005 (ip), vehicle: saline with Tween-80
[9] = dose: 100.0 mg/kg/injection, schedule: Q01DX005 (ip), vehicle: saline with Tween-80
[10] = dose: 60.0 mg/kg/injection, schedule: Q01DX005 (ip), vehicle: saline with Tween-80
[11] = dose: 120.0 mg/kg/injection, schedule: Q01DX005 (ip), vehicle: saline with Tween-80
[12] = dose: 240.0 mg/kg/injection, schedule: Q01DX005 (ip), vehicle: saline with Tween-80
[13] = dose: 200.0 mg/kg/injection, schedule: Q01DX005 (ip), vehicle: saline with Tween-80

C[N+]1(C)CCOCC1
T/C [1]: 94 % of control
T/C (dose: 6.25 mg/kg/injection, schedule: Q01DX009 (ip), vehicle: saline): 100 % of control and 101 % of control
T/C (dose: 12.5 mg/kg/injection, schedule: Q01DX009 (ip), vehicle: saline): 98 % of control
T/C (dose: 25.0 mg/kg/injection, schedule: Q01DX009 (ip), vehicle: saline): 88 % of control

COC1/C=C/OC2(C)Oc3c(C)c(O)c4c(O)c(c(/C=N/NC5C6CC7CC(C6)CC5C7)c(O)c4c3C2=O)NC(=O)/C(C)=C/C=C/C(C)C(O)C(C)C(O)C(C)C(OC(C)=O)C1C (stereo not drawn)
T/C [2]: 106 % of control
T/C [3]: 109 % of control
T/C [4]: 113 % of control and 95 % of control

C[C@H]1C[C@@H]2[C@H]([C@@H](O)C[C@@]3(C)[C@H]2CC[C@]3(O)C(=O)CO)[C@@]2(C)C=CC(=O)C=C12
T/C [4]: 100 % of control
T/C (dose: 66.0 mg/kg/injection, schedule: Q01DX009 (ip), vehicle: saline with Tween-80): 95 % of control
T/C (dose: 100.0 mg/kg/injection, schedule: Q01DX009 (ip), vehicle: saline with Tween-80): 100 % of control
T/C (dose: 100.0 mg/kg/injection, schedule: Q04DX003 (ip), vehicle: saline with Tween-80): 106 % of control and 112 % of control
T/C (dose: 132.0 mg/kg/injection, schedule: Q04DX003 (ip), vehicle: saline with Tween-80): 109 % of control
T/C (dose: 150.0 mg/kg/injection, schedule: Q01DX009 (ip), vehicle: saline with Tween-80): 90 % of control
T/C (dose: 200.0 mg/kg/injection, schedule: Q01DX009 (ip), vehicle: saline with Tween-80): 97 % of control
T/C (dose: 200.0 mg/kg/injection, schedule: Q04DX003 (ip), vehicle: saline with Tween-80): 108 % of control and 109 % of control
T/C (dose: 300.0 mg/kg/injection, schedule: Q04DX003 (ip), vehicle: saline with Tween-80): 95 % of control
T/C (dose: 400.0 mg/kg/injection, schedule: Q04DX003 (ip), vehicle: saline with Tween-80): 104 % of control and 108 % of control

N#CC1C(=O)NC(=O)C(C#N)C1c1ccccc1 (stereo not drawn)
T/C [5]: 102 % of control
T/C [6]: 101 % of control
T/C [7]: 100 % of control

CC[C@H]1C[C@H]2CN(CCc3c([nH]c4ccccc34)[C@@](C(=O)OC)(c3cc4c(cc3OC)N(C=O)[C@H]3[C@@](O)(C(=O)OC)[C@H](OC(C)=O)[C@]5(CC)C=CCN6CC[C@]43[C@@H]65)C2)C1
T/C (dose: 0.5 mg/kg/injection, schedule: Q01DX001 (ip), vehicle: water): 155 % of control
T/C (dose: 1.0 mg/kg/injection, schedule: Q01DX001 (ip), vehicle: water): 156 % of control and 174 % of control
T/C (dose: 2.0 mg/kg/injection, schedule: Q01DX001 (ip), vehicle: water): 180 % of control
T/C (dose: 4.0 mg/kg/injection, schedule: Q01DX001 (ip), vehicle: water): 90 % of control

O=C(CBr)N1c2ccccc2Sc2ccc3ccccc3c21
T/C [3]: 110 % of control and 120 % of control
T/C [4]: 122 % of control

CC(=O)/C=C(\C)Nc1noc(-c2ccccc2)n1
T/C (dose: 4.38 mg/kg/injection, schedule: Q01DX005 (ip), vehicle: Klucel (hydroxypropylcellulose) (HPC)): 102 % of control
T/C (dose: 8.75 mg/kg/injection, schedule: Q01DX005 (ip), vehicle: Klucel (hydroxypropylcellulose) (HPC)): 96 % of control
T/C (dose: 17.5 mg/kg/injection, schedule: Q01DX005 (ip), vehicle: Klucel (hydroxypropylcellulose) (HPC)): 101 % of control

CCOC(=O)N(O)c1ccc(C)cc1C
T/C [8]: 96 % of control
T/C [9]: 102 % of control

CCCc1[nH]nc(-c2n[nH]c(CCC)c2CC)c1CC
T/C [10]: 101 % of control
T/C [11]: 93 % of control
T/C [12]: 110 % of control

NCCNc1ncnc2ccc(Cl)cc12
T/C [8]: 97 % of control
T/C [9]: 93 % of control
T/C [13]: 92 % of control

NC(=O)N/N=C1/CC(=O)N(c2ccccc2)C1c1ccccc1 (stereo not drawn)
T/C [10]: 93 % of control
T/C [11]: 91 % of control
T/C [12]: 92 % of control

CCCCCCCCCCCCCC[N+]1(CC)CCCCC1
T/C (dose: 0.19 mg/kg/injection, schedule: Q01DX009 (ip), vehicle: saline): 113 % of control and 115 % of control
T/C (dose: 0.39 mg/kg/injection, schedule: Q01DX009 (ip), vehicle: saline): 111 % of control and 113 % of control and 118 % of control
T/C (dose: 0.78 mg/kg/injection, schedule: Q01DX009 (ip), vehicle: saline): 120 % of control and 94 % of control
T/C [1]: 109 % of control
T/C (dose: 1.56 mg/kg/injection, schedule: Q04DX003 (ip), vehicle: saline): 113 % of control

Cc1cc(C)n(C2=NC3(c4ccc(Cl)cc4)NC(=O)NC3(c3ccc(Cl)cc3)N2)n1 (stereo not drawn)
T/C (dose: 50.0 mg/kg/injection, schedule: Q04DX002 (ip), vehicle: saline with Tween-80): 96 % of control
T/C (dose: 100.0 mg/kg/injection, schedule: Q04DX002 (ip), vehicle: saline with Tween-80): 97 % of control
T/C (dose: 200.0 mg/kg/injection, schedule: Q04DX002 (ip), vehicle: saline with Tween-80): 93 % of control

O=C1c2ccccc2-c2c1nc1ccccc1[n+]2[O-]
T/C (dose: 6.25 mg/kg/injection, schedule: Q01DX005 (ip), vehicle: saline): 102 % of control
T/C (dose: 12.5 mg/kg/injection, schedule: Q01DX005 (ip), vehicle: saline): 103 % of control
T/C (dose: 25.0 mg/kg/injection, schedule: Q01DX005 (ip), vehicle: saline): 96 % of control

CSC(=Nc1cccnc1)NC#N
T/C [5]: 96 % of control
T/C [6]: 93 % of control
T/C [7]: 92 % of control

COC(=O)C1[C@@H](C(=O)c2ccccc2)N2C=Cc3ccccc3[C@@H]2[C@H]1C(=O)OC (stereo partly drawn)
T/C (dose: 60.0 mg/kg/injection, schedule: Q01DX005 (ip), vehicle: saline + Tween-80 + alcohol): 93 % of control
T/C (dose: 120.0 mg/kg/injection, schedule: Q01DX005 (ip), vehicle: saline + Tween-80 + alcohol): 93 % of control
T/C (dose: 240.0 mg/kg/injection, schedule: Q01DX005 (ip), vehicle: saline + Tween-80 + alcohol): 92 % of control

O=c1c2ccccc2nc(-c2ccccc2)n1-c1cc(C(F)(F)F)cc(C(F)(F)F)c1
T/C (dose: 6.25 mg/kg/injection, schedule: Q01DX009 (ip), vehicle: saline with Tween-80): 99 % of control
T/C [2]: 90 % of control

COC1=C(Br)C(=O)N/C1=C(\OC)c1ccccc1
T/C [10]: 89 % of control
T/C [11]: 98 % of control
T/C [12]: 89 % of control

CC(=O)Nc1ccc(N)cc1C
T/C (dose: 100.0 mg/kg/injection, schedule: Q04DX002 (ip), vehicle: saline): 96 % of control
T/C (dose: 200.0 mg/kg/injection, schedule: Q04DX002 (ip), vehicle: saline): 97 % of control
T/C (dose: 400.0 mg/kg/injection, schedule: Q04DX002 (ip), vehicle: saline): 97 % of control

Cc1ccc2c(c1)C1(SCCC(=O)N1c1ccc(Cl)cc1)C(=O)N2 (stereo not drawn)
T/C [8]: 103 % of control
T/C [9]: 95 % of control
T/C [13]: 100 % of control

CCOC(=O)C1CCCN(C)C1 (stereo not drawn)
T/C (dose: 100.0 mg/kg/injection, schedule: Q04DX003 (ip), vehicle: Klucel (hydroxypropylcellulose) (HPC)): 104 % of control
T/C (dose: 200.0 mg/kg/injection, schedule: Q04DX003 (ip), vehicle: Klucel (hydroxypropylcellulose) (HPC)): 100 % of control
T/C (dose: 400.0 mg/kg/injection, schedule: Q04DX003 (ip), vehicle: Klucel (hydroxypropylcellulose) (HPC)): 100 % of control

CC1NCCCN(CCN(C)C)CCCNC(C)c2cccc1n2 (stereo not drawn)
T/C (dose: 50.0 mg/kg/injection, schedule: Q01DX001 (ip), vehicle: saline): 103 % of control and 96 % of control
T/C (dose: 100.0 mg/kg/injection, schedule: Q01DX001 (ip), vehicle: saline): 101 % of control and 114 % of control and 92 % of control
T/C (dose: 200.0 mg/kg/injection, schedule: Q01DX001 (ip), vehicle: saline): 103 % of control and 122 % of control and 97 % of control

O=C(NC1CCCCC1)OCc1c(COC(=O)NC2CCCCC2)c2cccn2c2c1cnn2-c1ccccc1
T/C (dose: 15.0 mg/kg/injection, schedule: Q01DX005 (ip), vehicle: saline with Tween-80): 93 % of control
T/C (dose: 30.0 mg/kg/injection, schedule: Q01DX005 (ip), vehicle: saline with Tween-80): 88 % of control and 89 % of control
T/C [11]: 92 % of control and 96 % of control
T/C [12]: 99 % of control

COc1cc2c(cc1C/C=C/c1cc(OC)c(OC)c(OC)c1)OCO2
T/C [10]: 93 % of control
T/C [11]: 87 % of control
T/C [12]: 86 % of control

O=C1OC(C2=CC(=O)c3ccccc3C2=O)C(Cl)=C1Cl (stereo not drawn)
T/C [8]: 121 % of control
T/C [9]: 109 % of control
